The results in this text go back to patent publication US11083725B2 (priority 2014, dated 2021).

The subject of experiment [1] is CA09. Nature of the experiment: microbe, parasite or virus in culture. In kind it is cell-based, influenza virus H1N1 strain A/CA/04/2009. The settings on record: for log reduction at 10 pM / log reduction at 0.0001 µM / log reduction at 0.001 µM / log reduction at 0.01 µM / log reduction at 0.1 µM / log reduction at 1 µM / log reduction at 10 µM / log reduction at 100 µM: NHBE, read-out: TCID50 (per mL); for Viral Titer Therapeutic: follow up validation titer, therapeutic treatment.

The next experiment deals with NHBE cells. As to the kind of experiment: cells. In kind it is cell-based, human.
Experiment [2] concerns CA09. As to the kind of experiment: In vivo drug tests in CA09-infected mice: weight loss, survival, lung viral titer. The following applies: mice infected intranasally with CA09; for weight loss: daily drug for 7 days from 2 days before infection (NVP-BEZ235 25 mg/kg oral gavage; clotrimazole 120 mg/kg ip; α-mangostin 8 mg/kg ip); for survival: daily drug for 7 days from 2 days before infection, monitored 15 days. Also on record: species or system C57/B6 mice.

Experiment [3] relates to CA09. As to the kind of experiment: High-throughput modified TCID50 viral titer of drug-screen supernatant on MDCK cells (area under the curve). The following applies: supernatant of CA09-infected NHBE cells titrated on MDCK cells. The format is cell-based, influenza virus H1N1 strain A/CA/04/2009.
In experiment [4] the test system is BMDCs. In kind it is cell-based, mouse.
Experiment [5] concerns BMDCs. Nature of the experiment: Isotopically labeled substrate utilization in bone marrow-derived dendritic cells. The format is cell-based, mouse.

“Also recorded” adds a separate entry of the source. Where two headings read alike, the source gives them in different places.

For `COc1c(O)cc2oc3cc(O)c(CC=C(C)C)c(O)c3c(=O)c2c1CC=C(C)C` [α-Mangostin], the “viral titers in NHBE cells (validated drug hits)” value (from here on “viral titers in NHBE cells”) in the experiment with CA09 [1] was “consistent reduction”. In addition, the log reduction at 10 pM in the experiment with CA09 [1] (Prophylactic Drug Treatment, Drug Dose 10 pM, […]) is 0.74. Besides, in the experiment on CA09 [1] (Prophylactic Drug Treatment, Drug Dose 100 pM, […]), the log reduction at 0.0001 µM was 0.69. Moreover, the log reduction at 0.001 µM in the experiment on CA09 [1] (Prophylactic Drug Treatment, Drug Dose 1 nM, […]) amounted to 0.54. Moreover, the log reduction at 0.01 µM in the experiment on CA09 [1] (Prophylactic Drug Treatment, Drug Dose 10 nM, […]) amounted to 0.65. In addition, in the experiment on CA09 [1] (Prophylactic Drug Treatment, Drug Dose 100 nM, […]), the log reduction at 0.1 µM was 0.84. Besides, the log reduction at 1 µM in the experiment with CA09 [1] (Prophylactic Drug Treatment, Drug Dose 1 μM, […]) was determined as 0.71. Besides, in the experiment on CA09 [1] (Prophylactic Drug Treatment, Drug Dose 10 μM, […]), the log reduction at 10 µM worked out at 1.2. Besides, the log reduction at 100 µM in the experiment with CA09 [1] (Prophylactic Drug Treatment, Drug Dose 100 μM, […]) is 0.85. In addition, the “Viral Titer Prophylactic” value in the experiment with CA09 [1] ([…], prophylactic treatment) was “Reduced”. Further, in the experiment with CA09 [1] (listed as α-mangostin), the “viral titers in NHBE cells” value is recorded as “consistently reduced”. Besides, in the experiment on NHBE cells, the “Cell Death Prophylactic” value was “C > V”, the “Cell Death Therapeutic” value is reported as “C > V” and the “NHBE cell survival / cell death after infection” value (shortened to “NHBE cell survival / cell death”) is on record as “differential effects”. Further, in the experiment with NHBE cells (listed as α-mangostin), the “NHBE cell survival / cell death” value is recorded as “differentially affected”. Besides, in the experiment on CA09 [2], the weight loss entry is “little effect” and the survival result was “little effect”.
For `O=C1Nc2ccc3ncsc3c2/C1=C/c1cnc[nH]1` [Imidazolo-oxindole C 16], the “viral titers in the high-throughput screening” value with CA09 [3] is “reduced”. Further, the “Cell Death Therapeutic” value in the experiment on NHBE cells is “V > C”.
Turning to `O=C(Nc1cccc(Nc2ncc(Br)c(NCCc3cnc[nH]3)n2)c1)N1CCCC1` [BX-912], the “Viral Titer Therapeutic” value in the experiment on CA09 [1] is recorded as “Reduced”. For the same compound, the “viral titers in the high-throughput screening” value in the experiment with CA09 [3] is listed as “reduced”.
As for “polyinosinic polycytidylic acid [PolylC]”, the “all metabolites measured in flux assays” value with BMDCs [4] was “extreme drops”.
As to lipopolysaccharide [LPS], in the experiment on BMDCs [5], the “glycolysis (radiolabeled metabolic substrate assay)” value was “slight increase” and the “other substrate use measures (radiolabeled metabolic substrate assays)” value is “little effect”.
Take `O=CC[C@@H](O)[C@H](O)[C@H](O)CO` [2-deoxyglucose]: the “viral titer following therapeutic treatment” value with CA09 [1] (FIG. 12B, NHBE supernatant titered on MDCK cells) is reported as “efficient at reducing viral load”. Also, in the experiment on CA09 [1], the log reduction at 10 pM was determined as 0.94, the log reduction at 0.0001 µM is 0.35, the log reduction at 0.001 µM turned out to be 0.48 and the log reduction at 0.01 µM is 0.43. For the same compound, in the experiment with CA09 [1], the log reduction at 0.1 µM was 0.28, the log reduction at 1 µM was 0.87, the log reduction at 10 µM stood at 1.01 and the log reduction at 100 µM was 0.85. Besides, the “Viral Titer Therapeutic” value with CA09 [1] is listed as “Reduced”. Also, the “viral titers in the high-throughput screening” value in the experiment on CA09 [3] is listed as “reduced”. The “NHBE cell survival / cell death” value in the experiment on NHBE cells is on record as “preferentially killed infected cells”.
In the case of `Clc1ccccc1C(c1ccccc1)(c1ccccc1)n1ccnc1` [Clotrimazole], in the experiment on CA09 [1], the “Viral Titer Prophylactic” value was “Reduced”, the “viral titers in NHBE cells” value was “consistently reduced; also recorded: consistent reduction”, the log reduction at 10 pM came out at 0.71 and the log reduction at 0.0001 µM was 0.85. For the same compound, in the experiment on CA09 [1], the log reduction at 0.001 µM was found to be 0.84, the log reduction at 0.01 µM was determined as 0.7, the log reduction at 0.1 µM came out at 0.48 and the log reduction at 1 µM turned out to be 0.95. In the experiment with CA09 [1], the log reduction at 10 µM came to 0.9 and the log reduction at 100 µM turned out to be 1.07. In the experiment with NHBE cells, the “Cell Death Prophylactic” value was “C > V” and the “NHBE cell survival / cell death” value is listed as “differentially affected; also recorded: differential effects”. Moreover, in the experiment with CA09 [2], the weight loss result is given as “little effect” and the survival result was “little effect”.
Consider `C=C(C)[C@H]1Cc2c(ccc3c2O[C@@H]2COc4cc(OC)c(OC)cc4[C@@H]2C3=O)O1` [Rotenone], for which, in the experiment with CA09 [1] (Therapeutic Drug Treatment, Drug Dose 10 pM, […]), the log reduction at 10 pM came out at 0.09. In the experiment on CA09 [1] (Therapeutic Drug Treatment, Drug Dose 100 pM, […]), the log reduction at 0.0001 µM came to 0.15. In addition, in the experiment with CA09 [1] (Therapeutic Drug Treatment, Drug Dose 1 nM, […]), the log reduction at 0.001 µM is 0.9. Besides, the log reduction at 0.01 µM in the experiment with CA09 [1] (Therapeutic Drug Treatment, Drug Dose 10 nM, […]) was 0.04. Also, in the experiment on CA09 [1] (Therapeutic Drug Treatment, Drug Dose 100 nM, […]), the log reduction at 0.1 µM was 0.07. The log reduction at 1 µM in the experiment on CA09 [1] (Therapeutic Drug Treatment, Drug Dose 1 μM, […]) is 0.5. Further, the log reduction at 10 µM in the experiment on CA09 [1] (Therapeutic Drug Treatment, Drug Dose 10 μM, […]) stood at 1.14. Moreover, in the experiment on CA09 [1] (Therapeutic Drug Treatment, Drug Dose 100 μM, […]), the log reduction at 100 µM was -0.05. Besides, in the experiment with NHBE cells, the “Cell Death Prophylactic” value is “C > V” and the “Cell Death Therapeutic” value is recorded as “C > V”.
